We go through one compound from patent publication US7696408B2, “Method to enhance Agrobacterium-mediated transformation of plants” (Regents of the University of Minnesota, priority 1999, dated 2010).

“Also recorded” adds a separate entry of the source.

The subject of assay [1] is soybean cot-node explants. Description: GUS transient expression on soybean cot-node explants after 5-day co-cultivation with Agrobacterium (T-DNA delivery). It counts as cell-based, Glycine max. From the text:
For each seedling, the roots and the majority of the hypocotyl were removed approximately 3-5 mm below the cotyledonary node by cutting the hypocotyl with a scalpel (Hinchee et al., 1998). The two cotyledons were then separated by cutting vertically through the hypocotyl region resulting in two explants. The epicotyl was subsequently removed on both explants, including all primary leaves and shoot meristems, and both the axillary bud and cotyledonary node were wounded by cutting about 10 times with a scalpel blade perpendicular to the hypocotyl. After all explants in a set were wounded (about 50), they were placed in a 25×100 mm petri plate containing 50 ml co-culture suspension for 30 minutes or inoculated into the 25 ml co-cultivation/Agrobacterium suspension for 30 minutes. The explants were then cultured on an agar-solidified co-culture media (0.5%) either without the addition of a test agent (e.g., cysteine) in 15×100 mm petri plates on top a sterile Whatman®#1 filter paper; five explants per plate with adaxial side down. Five plates were stacked together and wrapped in Parafilm®M then incubated at either 22° C. or 25° C. for 5 days in the dark.
After 5 days, the explants were washed in a liquid shoot induction media (B5 salts, MSIII iron stock, 3% sucrose, 3 mM MES, and filter sterilized B5 vitamins, 1.67 mg/l BAP, 100 mg/l cefotaxime, and 500 mg/l ticarcillin; pH 5.6) to remove excess Agrobacterium. Seven to ten explants from each cysteine level were washed in liquid shoot induction medium and placed in GUS histochemical stain (Jefferson et al., 1987). These explants were scored for GUS transient expression. Five to ten explants from each group were imbedded into a single 25×100 mm petri plate with solid shoot induction media (0.8% agar and agent, e.g., 400 mg/l cysteine) containing PPT concentrations of 1.33 mg/l, 3.33 mg/l, or 5.0 mg/l for selection. The plates were then incubated in a growth chamber with a fluctuating temperature between 18° C.-30° C. under a 18 hours light/6 hours dark cycle at 90-150 μE/m^2s.
The level of infection was scored using the GUS gene as a phenotypic marker immediately after co-culture and again after 4 weeks in shoot induction media. As it can be difficult to score the explants after co-cultivation due to the variation among explants and, in some cases, a complete staining of the target tissues, 6 categories were formed to assess the success of infection: • 4) None=There were no GUS positive sectors on any of the explants; • 5) Very low=Not all explants have GUS positive sectors, however, some have discrete foci usually seen on the hypocotyl or cot-node region. • 6) Low=More than ¾ the explants have GUS positive sectors in discrete foci on the hypocotyl and the cot-node region, but the foci are not numerous (<20). • 7) Medium=More than ½ the explants have significant GUS positive sectors at the cot-node region and hypocotyl, some seen as long lines of cells or larger sectors. • 8) Good=More than ¾ the explants have significant staining at the hypocotyl, the entire cot-node region, and on the cotyledons. […] Almost all explants have regions that are completely GUS positive. To reduce bias, samples were chosen at random and the level of infection scored before noting the treatment conditions. Samples that were between two categories are marked accordingly; those samples that resembled one category more than another were marked with a capital “X” and the other with a lowercase “x”.
Wounded soybean cot-node explants prepared from the cultivar ‘Bert’ were co-cultivated with Agrobacterium on solid co-cultivation medium containing various levels of cysteine for 5 days.

Assay [2] concerns soybean cot-node explants. Description: De novo shoot production on explants at four weeks on shoot induction media. The following applies: Experiment #4, Bert. It is filed as cell-based, Glycine max.
Assay [3] deals with fava bean explants. Description: Enzymatic browning of fava bean explants. It is filed as cell-based. To be noted: cysteine (e.g., 400-1000 mg/l) in solid co-cultivation medium.

Regarding `N[C@@H](CS)C(=O)O` [L-cysteine], the “infection, cysteine in solid co-culture media (experiments #4-#6)” value in assay [1] (0 or 400 mg/l cysteine in liquid and solid co-culture media) is listed as “increased infection”. Besides, the “average frequency of explants containing a GUS+ focus at the cot-node” value in assay [1] (300 to 1000 mg/l cysteine in solid co-cultivation medium, Bert, AGL1 pBSF16, 5 days, 30% with no cysteine) is listed as roughly 100%. Also, the “GUS staining scores, difference from 0 mg/l cysteine” value in assay [1] (400 and 1000 mg/l cysteine, α=0.05 (P<0.001)) was “significantly differ”. Besides, the “frequency of explants with at least one GUS+ focus, difference from 0 mg/l cysteine” value in assay [1] (400 and 1000 mg/l cysteine, α=0.05 (P<0.001), FIG. 1D) is listed as “significantly differ”. For the same compound, in assay [1] (5 days co-cultivation, MN0901, A3237, MN1801, MN0301, Granite, MN1401, MN1301, Lambert), the “frequency of explants with GUS+ foci at the cot-node, all genotypes” value is “increase”. For the same compound, the “GUS+ staining after co-cultivation” value in assay [1] (Bert, LBA4404 pTOK233, agent in solid co-cultivation media, concentrations of Table 1, 5-day incubation) is “increases”. Besides, in assay [1] (after 5-day incubation, cysteine containing solid co-culture media (100-400 mg/l L-cysteine), genotypes Bert, MN1301, MN0901, 50% of control explants), the “infection (% of explants) at the entire cot-node region” value was 80-100%. For the same compound, in assay [1] (amended to solid co-cultivation media), the “GUS+ foci at the 5-day interval” value is recorded as “increase”. For the same compound, the “number of GUS+ foci per explant five days post-inoculation” value in assay [1] (cysteine 400-1000 mg/l, eight independent experiments) is “increase”. Besides, in assay [1] (cysteine during co-cultivation vs control, 5 days), the “frequency of GUS positive sectors/foci with strain LBA4404 pTOK233” value is given as “exceed in the frequency of GUS positive sectors over the control explants; also recorded: greater”. Further, in assay [1] (cysteine, especially 300 and 400 mg/l, MN1301, MN0901, Bert), the “GUS positive sectors after co-cultivation (experiments #1-#3)” value is “extensive GUS positive sectors”. Further, the “frequency of explants with at least one GUS+ focus at the cot-node” value in assay [1] (five days post-inoculation, cysteine 400-1000 mg/l, eight independent experiments, 30% without) is on record as 100%. Moreover, the “explants that developed de novo shoots” value in assay [2] (0S,400L) turned out to be 75%; in assay [2] (400L,0S (mg/l cysteine liquid, solid), control 0L,0S 76%) it was 47%; in assay [2] (400L,400S), 68%. The “enzymatic browning of fava bean explants” value in assay [3] was “decreased”.
